One data set addresses PGI2 receptor (Homo sapiens, UniProt P43119). To be noted: known, PTL 7 to PTL 12; cited from earlier work.
The conditions of data set [1]: known, NPL 1; cited from earlier work.
The nature of data set [2]: pH of alkaline substance at 0.1 wt % in water. The data set is classed as physicochemical. To be noted: dissolved or dispersed in water at 0.1 wt %. As to the method: The pH of the alkaline substance was measured according to the following method.
The alkaline substance was dissolved (or dispersed) in water at 0.1 wt %, and the pH of the solution (or the dispersion) was determined using a pH METER HM-30R (manufactured by DKK-TOA Corporation).

Sequence of PGI2 receptor (P43119 whole entry, species assumed): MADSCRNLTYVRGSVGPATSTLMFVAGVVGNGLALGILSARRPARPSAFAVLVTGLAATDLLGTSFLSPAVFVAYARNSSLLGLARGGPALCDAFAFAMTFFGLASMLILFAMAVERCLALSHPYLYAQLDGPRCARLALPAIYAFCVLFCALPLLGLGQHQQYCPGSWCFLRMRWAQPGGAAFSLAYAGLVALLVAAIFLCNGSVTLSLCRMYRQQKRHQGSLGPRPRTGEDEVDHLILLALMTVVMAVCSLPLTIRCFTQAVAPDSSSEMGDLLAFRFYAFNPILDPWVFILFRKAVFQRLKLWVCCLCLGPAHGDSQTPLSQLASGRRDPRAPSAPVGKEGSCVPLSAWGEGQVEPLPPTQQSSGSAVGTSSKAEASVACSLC

For `CC(C)N(CCCCOCC(=O)NS(C)(=O)=O)c1cnc(-c2ccccc2)c(-c2ccccc2)n1` [Compound A, 2-{4-[N-(5,6-diphenylpyrazin-2-yl)-N-isopropylamino]butyloxy}-N-(methylsulfonyl)acetamide], the “PGI2 receptor agonistic effect” value at PGI2 receptor is listed as “excellent”. Moreover, the Solubility result in data set [1] is reported as “depend on pH”.

For `O=C([O-])[O-].[Na+].[Na+]` [Dried sodium carbonate], in data set [2], the pH stood at 11.0.

In the case of `O=C([O-])O.[Na+]` [Sodium bicarbonate], in data set [2], the pH is given as 8.5.

In data set [2], `O=C([O-])CC(O)(CC(=O)[O-])C(=O)[O-].[Na+].[Na+].[Na+]` [Trisodium citrate] gave a pH of 8.3.

`CNC[C@H](O)[C@@H](O)[C@H](O)[C@H](O)CO` [Meglumine] showed a pH in data set [2] of 10.6.

Take `O=C([O-])[O-].[Ca+2]` [Calcium carbonate]: the pH in data set [2] turned out to be 9.8.

With `O=C([O-])[O-].[K+].[K+]` [Potassium carbonate], in data set [2], the pH was found to be 10.9.

The molecule `[Mg+2].[OH-].[OH-]` [Magnesium hydroxide] returned a pH in data set [2] of 10.3.

Regarding `O=P([O-])([O-])O.[Na+].[Na+]` [Sodium hydrogen phosphate], the pH in data set [2] turned out to be 9.2.

The molecule `[O]=[Mg]` [Magnesium oxide] returned a pH in data set [2] of 10.7.

`CC(=O)[O-].[Na+]` [Sodium acetate] gave a pH in data set [2] of 7.6.

For `[Ca+2].[OH-].[OH-]` [Calcium hydroxide], the pH in data set [2] came to 12.2.

These data come from patent publication US11382912B2, “Controlled-release preparation” (NIPPON SHINYAKU CO., LTD., priority 2017, dated 2022).
